Source: patent US20250319053A1, “INHIBITORS OF THE PEPTIDYL-PROLYL CIS/TRANS ISOMERASE (PIN1), COMBINATIONS AND USES THEREOF” (DANA-FARBER CANCER INSTITUTE, INC., priority 2021, published 2025)

Test system: WT B6 mice (non-tumor-bearing mice)
Assay: Blood test (CBC, liver, renal) of Pin1i-2 treated non-tumor-bearing B6 mice
Assay type: in vivo, mouse
Conditions: for CBC BA: Normal Range 0-2; for CBC EO: Normal Range 0-3.9; for CBC MO: Normal Range 0-7.5; for CBC WBC: Normal Range 1.8-10.7; for Liver Alb: Normal Range 1.95-4.74; for CBC RBC: Normal Range 6.36-9.42; for CBC NE: Normal Range 6.6-38.9; for CBC Hb: Normal Range 11-15.1; for Renal BUN: Normal Range 17-57.5; for Liver ALT: Normal Range 30-206; for CBC LY: Normal Range 55.8-91.6; for CBC PLT: Normal Range 592-2972; for Renal Cre: Normal Range <0.15
Description: Table 1 is a table of blood test results together with body weight of Pin1i−2 treated non-tumor-bearing B6 mice. See also FIG. 1A-FIG. 1G, FIG. 8A-FIG. 8O, and FIG. 9A-9L. WT B6 mice (non-tumor-bearing mice) were treated with vehicle or Pin1i−2 (20, 40, or 60 mg/kg, i.p., daily) for 5 weeks, followed by examining mice body weight or the RBC, Hb, Plate, and kidney and liver function using blood tests at 3 weeks and 5 weeks (n=5).

In the case of `CC(C)(C)CN(C(=O)CCl)C1CCS(=O)(=O)C1` (stereo not drawn) [Pin1i−2, sulfopin], the “CBC BA” value (20 mg/kg i.p. daily, 3 weeks) was 0.064%, the “CBC EO” value (20 mg/kg i.p. daily, 3 weeks) was 0.204% and the “CBC MO” value (20 mg/kg i.p. daily, 3 weeks) was 8.248%. For the same compound, the “CBC WBC” value (20 mg/kg i.p. daily, 3 weeks) was 7.508 K/uL, the “Liver Alb” value (20 mg/kg i.p. daily, 3 weeks) was 3.375 g/dL and the “CBC RBC” value (20 mg/kg i.p. daily, 3 weeks) was 9.424 M/uL. The “CBC NE” value (20 mg/kg i.p. daily, 3 weeks) was 6.5%, the “CBC Hb” value (20 mg/kg i.p. daily, 3 weeks) was 13.8 g/dL and the “Renal BUN” value (20 mg/kg i.p. daily, 3 weeks) was 31 mg/dL. The “Liver ALT” value (20 mg/kg i.p. daily, 3 weeks) was 41.5 U/L, the “CBC LY” value (20 mg/kg i.p. daily, 3 weeks) was 84.982% and the “CBC PLT” value (20 mg/kg i.p. daily, 3 weeks) was 530.4 K/uL. For the same compound, the “Renal Cre” value (20 mg/kg i.p. daily, 3 weeks) was under 0.15 mg/dL, the “CBC BA” value (20 mg/kg i.p. daily, 5 weeks) was 0.044% and the “CBC EO” value (20 mg/kg i.p. daily, 5 weeks) was 0.15%. For the same compound, the “CBC MO” value (20 mg/kg i.p. daily, 5 weeks) was 9.16%, the “CBC WBC” value (20 mg/kg i.p. daily, 5 weeks) was 7.452 K/uL and the “Liver Alb” value (20 mg/kg i.p. daily, 5 weeks) was 2.94 g/dL. For the same compound, the “CBC RBC” value (20 mg/kg i.p. daily, 5 weeks) was 9.228 M/uL, the “CBC NE” value (20 mg/kg i.p. daily, 5 weeks) was 6.134% and the “CBC Hb” value (20 mg/kg i.p. daily, 5 weeks) was 13.38 g/dL. For the same compound, the “Renal BUN” value (20 mg/kg i.p. daily, 5 weeks) was 30.4 mg/dL, the “Liver ALT” value (20 mg/kg i.p. daily, 5 weeks) was 41.4 U/L and the “CBC LY” value (20 mg/kg i.p. daily, 5 weeks) was 84.51%. The “CBC PLT” value (20 mg/kg i.p. daily, 5 weeks) was 612.6 K/uL, the “Renal Cre” value (20 mg/kg i.p. daily, 5 weeks) was under 0.15 mg/dL and the “CBC BA” value (40 mg/kg i.p. daily, 3 weeks) was 0.056%. For the same compound, the “CBC EO” value (40 mg/kg i.p. daily, 3 weeks) was 0.156%, the “CBC MO” value (40 mg/kg i.p. daily, 3 weeks) was 8.298% and the “CBC WBC” value (40 mg/kg i.p. daily, 3 weeks) was 4.76 K/uL. For the same compound, the “Liver Alb” value (40 mg/kg i.p. daily, 3 weeks) was 3.6 g/dL, the “CBC RBC” value (40 mg/kg i.p. daily, 3 weeks) was 8.698 M/uL and the “CBC NE” value (40 mg/kg i.p. daily, 3 weeks) was 6.97%. The “CBC Hb” value (40 mg/kg i.p. daily, 3 weeks) was 12.44 g/dL, the “Renal BUN” value (40 mg/kg i.p. daily, 3 weeks) was 28.8 mg/dL and the “Liver ALT” value (40 mg/kg i.p. daily, 3 weeks) was 41.67 U/L. For the same compound, the “CBC LY” value (40 mg/kg i.p. daily, 3 weeks) was 84.522%, the “CBC PLT” value (40 mg/kg i.p. daily, 3 weeks) was 449.2 K/uL and the “Renal Cre” value (40 mg/kg i.p. daily, 3 weeks) was under 0.15 mg/dL. The “CBC BA” value (40 mg/kg i.p. daily, 5 weeks) was 0.092%, the “CBC EO” value (40 mg/kg i.p. daily, 5 weeks) was 0.618% and the “CBC MO” value (40 mg/kg i.p. daily, 5 weeks) was 9.158%. The “CBC WBC” value (40 mg/kg i.p. daily, 5 weeks) was 5.876 K/uL, the “Liver Alb” value (40 mg/kg i.p. daily, 5 weeks) was 2.98 g/dL and the “CBC RBC” value (40 mg/kg i.p. daily, 5 weeks) was 9.714 M/uL. For the same compound, the “CBC NE” value (40 mg/kg i.p. daily, 5 weeks) was 8.926%, the “CBC Hb” value (40 mg/kg i.p. daily, 5 weeks) was 13.38 g/dL and the “Renal BUN” value (40 mg/kg i.p. daily, 5 weeks) was 26.4 mg/dL. The “Liver ALT” value (40 mg/kg i.p. daily, 5 weeks) was 46.2 U/L, the “CBC LY” value (40 mg/kg i.p. daily, 5 weeks) was 81.206% and the “CBC PLT” value (40 mg/kg i.p. daily, 5 weeks) was 548.8 K/uL. The “Renal Cre” value (40 mg/kg i.p. daily, 5 weeks) was under 0.15 mg/dL, the “CBC BA” value (60 mg/kg i.p. daily, 3 weeks) was 0.078% and the “CBC EO” value (60 mg/kg i.p. daily, 3 weeks) was 0.35%. The “CBC MO” value (60 mg/kg i.p. daily, 3 weeks) was 9.418%, the “CBC WBC” value (60 mg/kg i.p. daily, 3 weeks) was 6.712 K/uL and the “Liver Alb” value (60 mg/kg i.p. daily, 3 weeks) was 3.5 g/dL. The “CBC RBC” value (60 mg/kg i.p. daily, 3 weeks) was 9.858 M/uL, the “CBC NE” value (60 mg/kg i.p. daily, 3 weeks) was 12.606% and the “CBC Hb” value (60 mg/kg i.p. daily, 3 weeks) was 14.76 g/dL. For the same compound, the “Renal BUN” value (60 mg/kg i.p. daily, 3 weeks) was 25.4 mg/dL, the “Liver ALT” value (60 mg/kg i.p. daily, 3 weeks) was 50.5 U/L and the “CBC LY” value (60 mg/kg i.p. daily, 3 weeks) was 77.548%. The “CBC PLT” value (60 mg/kg i.p. daily, 3 weeks) was 700.8 K/uL, the “Renal Cre” value (60 mg/kg i.p. daily, 3 weeks) was under 0.15 mg/dL and the “CBC BA” value (60 mg/kg i.p. daily, 5 weeks) was 0.016%. For the same compound, the “CBC EO” value (60 mg/kg i.p. daily, 5 weeks) was 0.304%, the “CBC MO” value (60 mg/kg i.p. daily, 5 weeks) was 10.276% and the “CBC WBC” value (60 mg/kg i.p. daily, 5 weeks) was 5.664 K/uL. The “Liver Alb” value (60 mg/kg i.p. daily, 5 weeks) was 2.72 g/dL, the “CBC RBC” value (60 mg/kg i.p. daily, 5 weeks) was 8.958 M/uL and the “CBC NE” value (60 mg/kg i.p. daily, 5 weeks) was 7.656%. The “CBC Hb” value (60 mg/kg i.p. daily, 5 weeks) was 12.74 g/dL, the “Renal BUN” value (60 mg/kg i.p. daily, 5 weeks) was 22.8 mg/dL and the “Liver ALT” value (60 mg/kg i.p. daily, 5 weeks) was 49.2 U/L. The “CBC LY” value (60 mg/kg i.p. daily, 5 weeks) was 81.742%, the “CBC PLT” value (60 mg/kg i.p. daily, 5 weeks) was 618 K/uL and the “Renal Cre” value (60 mg/kg i.p. daily, 5 weeks) was under 0.15 mg/dL.
